Results on two molecules are retold here after article PMC9317316, “Synthesis and Evaluation of Some New 4H-Pyran Derivatives as Antioxidant, Antibacterial and Anti-HCT-116 Cells of CRC, with Molecular Docking, Antiproliferative, Apoptotic and ADME Investigations” (Pharmaceuticals, 2022).

Where “and” joins values, the source holds several entries; their conditions need not be identical. Equal entries are not always repeated.

Assay [1] is described as follows: DPPH radical scavenging assay. As to conditions: for IC50: 0.03 to 1 mg/mL, 1 h, mean ± SD, triplicate, read-out: IC50 (mM) for DPPH Scavenging Potency. In a few lines: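 Ethanolic DPPH mixed with samples at 0.03 to 1 mg/mL, kept 1 h at room temperature in darkness, then absorbance read at 519 nm against compound-free control. Scavenging percentage computed as (1 − Acompound/Acontrol) × 100; IC50 interpolated from scavenging-versus-concentration plot.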

Assay [2] deals with T1, CDK2/CyclinA2 enzyme (Homo sapiens, UniProt P24941).
T1 construct: purchased BPS Biosciences, San Diego, CA, USA 79599
Nature of the assay: In vitro CDK2 inhibitory assay (Kinase-Glo). The format is biochemical. As to conditions: for IC50: deduced from curves over 0.01-10 µM, read-out: IC50 against CDK2. The procedure:
To further substantiate the promising results of the docking analyses of pyrans 4d and 4K in the ATP active site of CDK2, their in vitro potencies to inhibit the enzyme activity were evaluated over a concentration range of 0.01−10 µM.
CDK-2 inhibition activity of the studied compounds 4d and 4k was evaluated using a commercial CDK2 […] (cat. no.: 79599; BPS Biosciences, San Diego, CA, USA) following the manufacturer’s instructions. Briefly, different concentrations of each compound or the positive control BMS-265246 (0.01, 0. 1, 1 or 10 µM) were incubated with 20 µL of diluted CDK2/CyclinA2 enzyme at 30 °C for 45 min. Following the addition of 50 µL Kinase-Glo® Reagent to each well, the plate was incubated at room temperature for 15 min. Then, the luminescence signal was measured using the microplate reader. The CDK2 inhibitory activity was expressed as inhibition percentage, which was determined by comparison with a control experiment for comparative purposes. IC50 values were deduced from the curves. All measurements were performed in triplicate.
Background: In Kinase-Glo more light means more ATP remaining.

The test system of assay [3] is CDK2 gene in HCT-116 cells. The assay can be described thus: qRT-PCR expression profile of the CDK2 gene in HCT-116 cells. As to conditions: 24 h, relative to untreated cells (given as decreased x-fold). The format is cell-based, human. The procedure:
Second, the expression profiles of the CDK2 gene in HCT-116 cells treated with compounds 4d and 4k were determined. The results were compared with the positive control (cells treated with the well-known cytotoxic drug 5-fluorouracil) and the negative control (untreated cells).
Primers specific for the cyclin-dependent kinase-2 (CDK2) and caspase-3 genes were designed using primer blast (https://www.ncbi.nlm.nih.gov/tools/primer-blast/, accessed on 31 October 2021) or primer3 (https://primer3.ut.ee/, accessed on 31 October 2021) software. The selected genes covered the two main groups of the cyclin-dependent kinase-2 (CDK2) gene and the caspase-3 gene. Primers were used in RT-qPCR analysis to amplify fragments of 100–200 bp in length (Table 7).
Total RNA was extracted from each cell culture flask using the RNeasy extraction kit (RNeasy micro kit, cat. no. 74004). Up to 1 × 10^6 cells, depending on the cell line, were disrupted in buffer RLT and homogenized and disrupted. Ethanol was then added to the lysate, creating conditions that promote the selective binding of RNA to the RNeasy membrane. […] The amount of extracted RNA was quantified by estimating the absorbance at 260 nm. The purity of the RNA was checked by measuring the ratio of the absorbance at 260 and 280 nm, where a ratio ranging from 1.8 to 2.0 was taken to be pure. […]
Quantitative real-time PCR was carried out with the Thermal Cycler Rotorgene Real-Time System II (Rotorgene, South Korea) with the SYBR kit. […]
The relative expression levels through the average cycle threshold (CT) were successfully detected. Average CT values were calculated from the triplicate experiment conducted for each gene; the CT value was detected by subtracting the average CT value of genes from the CT value of actin and GAPDH genes. The relative expression levels of the target genes were calculated using the ΔΔ Ct method and the reference genes GAPDH for the cancer cell line. Finally, a fold change equation […] was used to estimate relative expression levels, while the standard deviation was calculated from the replicated experimental data.
(In general: Real-time PCR tracks product formation cycle by cycle.)

Consider `COc1cc(C2C(C#N)=C(N)OC(C)=C2C(=O)OCc2ccccc2)cc(OC)c1OC` (stereo not shown) [4d, 6-Amino-5-cyano-2-methyl-4-(3,4,5-trimethoxy-phenyl)-4H-pyran-3-carboxylic acid benzyl ester], for which the IC50 (commonly the concentration that inhibits the measured activity by half) came out at 0.504 ± 0.032 mM in assay [1] and 0.143 µM in assay [2]. In addition, in assay [1], the “DPPH Radical Scavenging Effenciency (%) at 1 mg/mL” value is 65.25% and 65.25 ± 1.77%. For the same molecule, the “decrease of CDK2 activity” value is 26.9% in assay [2] (at 0.01 µM), 41.5% in assay [2] (at 0.1 µM), 72.5% in assay [2] (at 1 µM) and 89% in assay [2] (at 10 µM). For the same molecule, in assay [3], the “CDK2 transcript level, fold” value is 0.50 fold.

Regarding `CC1=C(C(=O)OCc2ccccc2)C(c2ccc(C#N)cc2)C(C#N)=C(N)O1` (stereo not shown) [4k, 6-Amino-5-cyano-4-(4-cyano-phenyl)-2-methyl-4H-pyran-3-carboxylic acid benzyl ester], the IC50 in assay [1] was determined as 1.05 ± 0.075 mM; in assay [2] it was 0.214 µM. In addition, the “DPPH Radical Scavenging Effenciency (%) at 1 mg/mL” value in assay [1] is recorded as 40.55 ± 2.19%. Besides, the “decrease of CDK2 activity” value was found to be 21.9% in assay [2] (at 0.01 µM), 42.4% in assay [2] (at 0.1 µM), 66.3% in assay [2] (at 1 µM) and 83.6% in assay [2] (at 10 µM). Further, the “CDK2 transcript level, fold” value in assay [3] was 0.45 fold.
